# Experimental data from article PMC10385579, “Design, Synthesis, and Biological Evaluation of Indole-2-carboxamides as Potential Multi-Target Antiproliferative Agents” (Pharmaceuticals, 2023).
# Assays:
# [1] = tested on: breast cancer (MCF-7) cell line; assay: Antiproliferative assay, MCF-7; assay type: cell-based; details: Homo sapiens, MCF7; read-out: Antiproliferative Activity IC50 ± SEM, MCF-7
# Procedure: (§1) 4.2.1.2. Assay for antiproliferative effect
# (§2) To explore the antiproliferative potential of compounds propidium iodide fluorescence assay was performed using different cell lines such as Panc-1 (pancreas cancer cell line), MCF-7 (breast cancer cell line), HT-29 (colon cancer cell line) and A-549 (epithelial cancer cell line), respectively.
# (§3) To calculate the total nuclear DNA, a fluorescent dye (propidium iodide, PI) is used which can attach to the DNA, thus offering a quick and precise technique. PI cannot pass through the cell membrane and its signal intensity can be considered as directly proportional to quantity of cellular
# (§4) DNA. Cells whose cell membranes are damaged or have changed permeability are counted as dead ones. The assay was performed by seeding the cells of different cell lines at a density of 3000-7500 cells/well (in200μl medium) in culture plates followed by incubation for 24h at 37 °C in humidified 5%CO2/95% air atmospheric conditions. The medium was removed; the compounds were added to the plates at 10 μM concentrations (in 0.1% DMSO) in triplicates, followed by incubation for 48h. DMSO (0.1%) was used as control. After incubation, medium was removed followed by the addition of PI (25 μl, 50μg/mL in water/medium) to each well of the plates. At - 80 °C, the plates were allowed to freeze for 24 h, followed by thawing at 25 °C. A fluorometer (Polar-Star BMG Tech) was used to record the readings at excitation and emission wavelengths of 530 and 620 nm for each well. The percentage cytotoxicity of compounds was calculated using […]
# (§5) Where ATC= Absorbance of treated cells and AC= Absorbance of control. Erlotinib was used as positive control in the assay.
# [2] = tested on: pancreatic cancer (Panc-1) cell line; assay: Antiproliferative assay, Panc-1; assay type: cell-based; details: Homo sapiens, read-out: Antiproliferative Activity IC50 ± SEM, Panc-1
# Procedure: as §1, §2, §3, §4, §5
# [3] = tested on: colon cancer (HT-29) cell line; assay: Antiproliferative assay, HT-29; assay type: cell-based; details: Homo sapiens, read-out: Antiproliferative Activity IC50 ± SEM, HT-29
# Procedure: as §1, §2, §3, §4, §5
# [4] = tested on: four human cancer cell lines (A-549, MCF-7, Panc-1, HT-29); assay: Antiproliferative assay, average over the four cancer cell lines (GI50); assay type: cell-based; details: average of the four cancer cell lines
# Procedure: (§6) See Supplementary Materials.
# as §1
# To explore the antiproliferative potential of compounds propidium iodide fluorescence assay was performed using different cell lines such as Panc-1 (pancreas cancer cell line), MCF-7 (breast […]
# as §3
# DNA. Cells whose cell membranes are damaged or have changed permeability are counted as dead ones. The assay was performed by seeding the cells of different cell lines at a density of 3000- […]
# The medium was removed; the compounds were added to the plates at 10 μM concentrations (in 0.1% DMSO) in triplicates, followed by incubation for 48h. DMSO (0.1%) was used as control. After incubation, medium was removed followed by the addition of PI (25 μl, 50μg/mL in water/medium) to each well of the plates. At - 80 °C, the plates were allowed to freeze for 24 h, followed by thawing at 25 °C. A fluorometer (Polar-Star BMG Tech) was used to record the readings at excitation and emission wavelengths of 530 and 620 nm for each well. The percentage cytotoxicity of compounds was calculated using […]
# Where ATC= Absorbance of treated cells and AC= Absorbance of control. […]
# positive control in the assay.
# [5] = tested on: caspase-8; assay: Caspase-8 level assay in A-549 cells; assay type: cell-based, human; details: for Caspase-8 Conc: control 0.10; for Caspase-8 Fold Change: vs control
# Procedure: as §6
# 4.2.6. Caspase-8 activation assay […]
# caspase8, and lysed with Cell Extraction Buffer. This lysate was diluted in Standard Diluent Buffer over the range of the assay and measured for human active caspase-8 content. (Cells are Plated in a density of 1.2 – 1.8 × 10,000 cells/well in a vo lume of 100µl complete growth medium + 100 ul of the tested compound per well in a 96-well plate for 24 hours before the enzyme assay for Tubulin.). The absorbance of each microwell was read on a spectro-photometer at 450 nm. A standard curve is prepared from 7human Caspase-8 standard dilutions and human Caspase-8 concentration determined. […]
# [6] = tested on: Bax; assay: Bax level assay in A-549 cells; assay type: cell-based, human; details: for Bax Conc: control 9; for Bax Fold Change: vs control
# Procedure: caspase8, and lysed with Cell Extraction Buffer. This lysate was diluted in Standard Diluent Buffer over the range of the assay and measured for human active caspase-8 content. […]
# 4.2.7. Bax activation assay
# Bring all reagents, except the human Bax-α Standard, to room temperature for at least 30 minutes prior to opening. The human Bax-α Standard solution should not be left at room temperature for more than 10 minutes. All standards, controls and samples should be run in duplicate. Refer to the Assay Layout Sheet to determine the number of wells to be used and put any remaining wells with the desiccant back into the pouch and seal the ziploc. Store unused wells at 4 °C. Pipet 100 μL of Assay Buffer into the S0 (0 pg/mL standard) wells. Pipet 100 μL of Standards #1 through #6 into the appropriate wells. Pipet 100 μL of the Samples into the appropriate wells. Tap the plate gently to mix the contents. Seal the plate and incubate at room temperature on a plate shaker for 1 hour at ~500 rpm. Empty the contents of the wells and wash by adding 400 μL of wash solution to every well. Repeat the wash 4 more times for a total of 5 washes. After the final wash, empty or aspirate the wells and firmly tap the plate on a lint free paper towel to remove any remaining wash buffer.
# Pipet 100 μL of yellow Antibody into each well, except the Blank. Seal the plate and incubate at room temperature on a plate shaker for 1 hour at ~500 rpm. Empty the contents of the wells and wash by adding 400 μL of wash solution to every well. Repeat the wash 4 more times for a total of 5 washes. After the final wash, empty or aspirate the wells and firmly tap the plate on a lint free paper towel to remove any remaining wash buffer. Add 100 μL of blue Conjugate to each well, except the Blank. Seal the plate and incubate at room temperature on a plate shaker for 30 minutes […]
# Pipet 100 μL of Substrate Solution into each well. Incubate for 30 minutes at room temperature on a plate shaker at ~500 rpm. Pipet 100 μL Stop Sol ution to each well. Blank the plate reader against the Blank wells, read the optical density at 450 nm. Calculate the average net Optical Density (OD) bound for each standard and sample by subtracting the average Blank OD from the average OD for each standard and sample. Using linear graph paper, plot the Average Net OD for each standard versus Bax concentration in each standard. Approximate a straight line through the points.
# The concentration of Bax in the unknowns can be determined by interpolation. […]
# [7] = biological target: VEGFR-2 (Homo sapiens, UniProt P35968); assay: VEGFR-2 inhibitory assay
# Sequence of VEGFR-2 (P35968 20-1356): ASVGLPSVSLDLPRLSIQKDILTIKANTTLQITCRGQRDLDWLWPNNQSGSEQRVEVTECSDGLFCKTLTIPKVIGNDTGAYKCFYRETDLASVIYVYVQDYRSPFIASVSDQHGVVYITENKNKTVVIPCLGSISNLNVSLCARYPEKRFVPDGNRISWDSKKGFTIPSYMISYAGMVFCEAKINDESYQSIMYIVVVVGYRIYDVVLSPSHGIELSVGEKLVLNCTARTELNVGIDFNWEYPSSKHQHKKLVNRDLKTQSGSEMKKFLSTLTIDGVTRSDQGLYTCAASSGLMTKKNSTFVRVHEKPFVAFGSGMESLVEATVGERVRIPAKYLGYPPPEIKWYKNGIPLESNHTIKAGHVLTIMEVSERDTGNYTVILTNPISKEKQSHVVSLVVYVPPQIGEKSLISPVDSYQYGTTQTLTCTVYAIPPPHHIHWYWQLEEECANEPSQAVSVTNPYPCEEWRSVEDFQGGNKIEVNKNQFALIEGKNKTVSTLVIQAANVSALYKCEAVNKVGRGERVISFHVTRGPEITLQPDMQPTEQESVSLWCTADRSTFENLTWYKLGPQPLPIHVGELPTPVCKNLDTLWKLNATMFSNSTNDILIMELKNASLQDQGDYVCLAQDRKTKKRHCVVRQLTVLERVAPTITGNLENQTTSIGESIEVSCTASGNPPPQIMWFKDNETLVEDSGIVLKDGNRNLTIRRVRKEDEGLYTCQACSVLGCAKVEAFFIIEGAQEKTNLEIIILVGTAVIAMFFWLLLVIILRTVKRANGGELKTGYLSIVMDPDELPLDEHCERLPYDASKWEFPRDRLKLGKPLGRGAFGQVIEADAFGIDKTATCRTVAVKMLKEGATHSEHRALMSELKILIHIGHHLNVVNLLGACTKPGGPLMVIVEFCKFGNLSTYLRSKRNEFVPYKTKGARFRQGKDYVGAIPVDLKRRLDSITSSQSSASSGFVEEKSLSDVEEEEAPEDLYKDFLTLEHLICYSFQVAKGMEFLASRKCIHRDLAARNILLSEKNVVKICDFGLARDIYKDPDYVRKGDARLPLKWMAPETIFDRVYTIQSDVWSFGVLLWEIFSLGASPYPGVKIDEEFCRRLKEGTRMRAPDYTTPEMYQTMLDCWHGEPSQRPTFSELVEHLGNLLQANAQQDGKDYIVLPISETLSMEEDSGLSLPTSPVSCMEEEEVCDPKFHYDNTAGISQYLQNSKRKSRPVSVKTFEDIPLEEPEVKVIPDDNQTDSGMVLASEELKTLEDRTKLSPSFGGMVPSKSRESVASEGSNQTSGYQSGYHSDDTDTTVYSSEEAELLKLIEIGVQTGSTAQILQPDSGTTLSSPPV
# Procedure: Prepare all the solutions using autoclaved, deionized water and analytical grade reagents.
# and store all the reagents at room temperature (unless indicated otherwise).
# solution, add 5 mL ultra-pure water; 1×Kinase Assay Buffer: add 25 mL HEPES solution (1 M),
# water, adjust pH to 7.5 and constant volume to 500 mL using ultrapure water; 4×Stop solution (40
# mM): Mix 0.8 mL of the foregoing EDTA solution, 1 mL 10×Detection Buffer and 8.2 mL ultra-
# pure water; 1×Detection Buffer: Mix 1 mL 10×Detection Buffer with 9 mL water; 4×VEGFR
# μM) was added to 624 μL 1×Kinase Assay Buffer and mixed; 4×ULight™-labeled JAK1
# concentration 5 μM) was added to 576 μL 1×Kinase Assay Buffer and mixed; 4×ATP Solution
# 2×substrate/ATP Mix: 560 μL foregoing 4×ULight™-labeled JAK1 and 560 μL 4×ATP solution
# and mixed (prepared before use). The assays used an ULight-labeled peptide substrate and a
# Europium-W1024-labeled antiphosphotyrosine antibody. The VEGFR-2 was purchased from
# Carna Biosciences, Inc. (New York, USA). The 384-well plates were obtained from PerkinElmer.
# 5 μL 2×VEGFR-2 kinase solution (0.5 nM)
# was added to 384-well plates homogeneous mixing and pre-reaction at room temperature for 30 min. Next, 2.5 μL 4×Ultra ULightTM-JAK-1(Tyr1023) Peptide (200 nM)/ATP (40 μM) was added to the corresponding wells of a 384-well plate. Negative control: 2.5 μL/well 4×substrate/ATP mixture and 7.5 μL 1×kinase assay buffer in 384-well plate well. Positive control:
# μL/well 2×VEGFR-2 kinase solution was added to the 384-well plate, The final concentration of DMSO in the mixing system was 4%. After incubation at room temperature and dark for 60 min, 5 μL 4×stop solution was added to corresponding wells to react for 5 min and then 5 μL 4×detection mix was added to the corresponding wells of a 384-well plate. The mixture was centrifugally mixed and stayed for 60 min at room temperature for color development. The plate was read using a Envision plate reader. The inhibition rate (%) = (positive well reading-compound well reading)/(positive well reading-negative well reading)×100. The corresponding IC50 values were calculated using GraphPad Prism 5.0.
IC50 [1],IC50 [2],IC50 [3],GI50 [4],melting point,IC50 [7],SMILES,Caspase-8 Conc [5],Caspase-8 Fold Change [5],Bax Conc [6],Bax Fold Change [6]
28 ± 2 nM,26 ± 2 nM,26 ± 2 nM,26 nM,112 to 114 °C,2.15 ± 0.2 nM,"O=C(NCC(c1ccccc1)c1c(-c2ccccc2)[nH]c2ccccc12)c1cc2cc(Cl)ccc2[nH]1 (centres unmarked) [Compound Va, 5-Chloro-N-(2-phenyl-2-(2-phenyl-1H-indol-3-yl)ethyl)-1H-indole-2-carboxamide]",3.50 ng/mL,35,410 pg/mL,45
33 ± 3 nM,30 ± 2 nM,30 ± 2 nM,31 nM,140 to 142 °C,1.6 ± 0.1 nM,"CO/C=C/c1c(C(=O)NCC(c2ccccc2)c2c(-c3ccccc3)[nH]c3ccccc23)[nH]c2ccc(Cl)cc12 (centres unmarked) [Compound Vg, (E)-5-Chloro-3-(2-methoxyvinyl)-N-(2-phenyl-2-(2-phenyl-1H-indol-3-yl)ethyl)-1H-indole-2-carboxamide]",2.20 ng/mL,22,320 pg/mL,35
